Test results: ChEMBL document CHEMBL5365445, “Discovery of a photosensitizing PI3K inhibitor for tumor therapy: Design, synthesis and in vitro biological evaluation” (Bioorg Med Chem Lett, 2023)
Activity calls are given as the source filed them. The rule behind the calls is not given here.

Experiments:
[1] = target: T1, Phosphatidylinositol 3-kinase (Mus musculus) (UniProt P26450+P42337); experiment: Inhibition of PI3K in mouse B16 cells assessed as reduction in phosphorylation of AKT at T308 residue at 10 to 15 uM incubated for 24 hrs irradiated with 365 nm uv light for 4 min by Western blot analysis; assay type: cell-based; settings: dose 10-15 µM
T1 sequence (P26450 whole entry, looked up): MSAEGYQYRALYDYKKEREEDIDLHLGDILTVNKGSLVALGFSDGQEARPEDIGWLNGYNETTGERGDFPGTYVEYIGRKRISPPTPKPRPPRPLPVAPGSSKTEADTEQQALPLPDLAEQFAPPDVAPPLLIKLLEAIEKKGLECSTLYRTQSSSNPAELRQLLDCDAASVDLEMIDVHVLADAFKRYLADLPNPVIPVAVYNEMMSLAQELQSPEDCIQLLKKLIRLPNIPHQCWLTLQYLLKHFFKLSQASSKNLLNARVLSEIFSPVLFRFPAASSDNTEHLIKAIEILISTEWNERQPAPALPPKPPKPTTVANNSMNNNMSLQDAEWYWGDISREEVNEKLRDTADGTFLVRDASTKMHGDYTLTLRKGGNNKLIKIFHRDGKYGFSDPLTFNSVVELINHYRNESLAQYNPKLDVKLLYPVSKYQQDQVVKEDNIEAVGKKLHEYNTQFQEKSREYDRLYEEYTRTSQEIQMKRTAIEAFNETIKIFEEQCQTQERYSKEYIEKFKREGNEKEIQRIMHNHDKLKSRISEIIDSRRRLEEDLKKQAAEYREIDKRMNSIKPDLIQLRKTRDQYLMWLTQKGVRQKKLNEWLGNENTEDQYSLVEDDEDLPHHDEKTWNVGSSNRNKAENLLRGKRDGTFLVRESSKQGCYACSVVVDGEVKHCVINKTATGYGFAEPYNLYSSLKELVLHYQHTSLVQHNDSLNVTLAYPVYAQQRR
T1 sequence (P42337 whole entry, looked up): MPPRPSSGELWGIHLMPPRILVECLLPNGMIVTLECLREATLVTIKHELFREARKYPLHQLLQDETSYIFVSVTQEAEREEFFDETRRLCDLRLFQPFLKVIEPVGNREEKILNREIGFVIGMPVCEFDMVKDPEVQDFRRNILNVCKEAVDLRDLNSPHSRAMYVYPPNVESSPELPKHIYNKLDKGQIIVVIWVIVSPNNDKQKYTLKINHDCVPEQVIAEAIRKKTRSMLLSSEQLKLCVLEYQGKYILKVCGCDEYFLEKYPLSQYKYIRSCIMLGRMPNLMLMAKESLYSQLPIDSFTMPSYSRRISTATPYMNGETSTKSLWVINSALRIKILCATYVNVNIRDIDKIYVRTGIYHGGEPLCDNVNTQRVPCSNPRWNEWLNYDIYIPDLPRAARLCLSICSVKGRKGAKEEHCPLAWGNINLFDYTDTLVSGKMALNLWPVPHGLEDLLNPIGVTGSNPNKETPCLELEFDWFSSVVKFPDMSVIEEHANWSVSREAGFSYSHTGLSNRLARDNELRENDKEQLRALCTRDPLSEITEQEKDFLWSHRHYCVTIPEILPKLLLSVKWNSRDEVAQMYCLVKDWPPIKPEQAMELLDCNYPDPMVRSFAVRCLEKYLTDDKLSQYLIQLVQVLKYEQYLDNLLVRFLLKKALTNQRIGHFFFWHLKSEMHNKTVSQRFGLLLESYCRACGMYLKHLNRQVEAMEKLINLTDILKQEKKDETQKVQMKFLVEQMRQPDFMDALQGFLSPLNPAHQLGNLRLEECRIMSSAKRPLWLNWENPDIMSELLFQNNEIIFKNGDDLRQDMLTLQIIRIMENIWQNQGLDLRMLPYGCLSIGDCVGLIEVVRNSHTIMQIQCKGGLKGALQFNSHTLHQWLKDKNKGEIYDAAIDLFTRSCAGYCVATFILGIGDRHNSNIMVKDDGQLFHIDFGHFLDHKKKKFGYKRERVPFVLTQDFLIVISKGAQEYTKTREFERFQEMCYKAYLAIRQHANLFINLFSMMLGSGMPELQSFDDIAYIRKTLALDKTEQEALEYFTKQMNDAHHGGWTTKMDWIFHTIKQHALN

[2] = target: T1, Phosphatidylinositol 3-kinase (Mus musculus); experiment: Inhibition of PI3K in mouse B16 cells assessed as reduction in phosphorylation of AKT at […] residue at 10 to 15 uM incubated for 24 hrs irradiated with 365 nm uv light for 4 min by Western blot analysis; assay type: cell-based; settings: dose 10-15 µM
[3] = target: Phosphatidylinositol 4,5-bisphosphate 3-kinase catalytic subunit alpha isoform (Homo sapiens, UniProt P42336); experiment: Inhibition of PI3Kalpha (unknown origin)
Sequence of Phosphatidylinositol 4,5-bisphosphate 3-kinase catalytic subunit alpha isoform (P42336 whole entry, canonical isoform): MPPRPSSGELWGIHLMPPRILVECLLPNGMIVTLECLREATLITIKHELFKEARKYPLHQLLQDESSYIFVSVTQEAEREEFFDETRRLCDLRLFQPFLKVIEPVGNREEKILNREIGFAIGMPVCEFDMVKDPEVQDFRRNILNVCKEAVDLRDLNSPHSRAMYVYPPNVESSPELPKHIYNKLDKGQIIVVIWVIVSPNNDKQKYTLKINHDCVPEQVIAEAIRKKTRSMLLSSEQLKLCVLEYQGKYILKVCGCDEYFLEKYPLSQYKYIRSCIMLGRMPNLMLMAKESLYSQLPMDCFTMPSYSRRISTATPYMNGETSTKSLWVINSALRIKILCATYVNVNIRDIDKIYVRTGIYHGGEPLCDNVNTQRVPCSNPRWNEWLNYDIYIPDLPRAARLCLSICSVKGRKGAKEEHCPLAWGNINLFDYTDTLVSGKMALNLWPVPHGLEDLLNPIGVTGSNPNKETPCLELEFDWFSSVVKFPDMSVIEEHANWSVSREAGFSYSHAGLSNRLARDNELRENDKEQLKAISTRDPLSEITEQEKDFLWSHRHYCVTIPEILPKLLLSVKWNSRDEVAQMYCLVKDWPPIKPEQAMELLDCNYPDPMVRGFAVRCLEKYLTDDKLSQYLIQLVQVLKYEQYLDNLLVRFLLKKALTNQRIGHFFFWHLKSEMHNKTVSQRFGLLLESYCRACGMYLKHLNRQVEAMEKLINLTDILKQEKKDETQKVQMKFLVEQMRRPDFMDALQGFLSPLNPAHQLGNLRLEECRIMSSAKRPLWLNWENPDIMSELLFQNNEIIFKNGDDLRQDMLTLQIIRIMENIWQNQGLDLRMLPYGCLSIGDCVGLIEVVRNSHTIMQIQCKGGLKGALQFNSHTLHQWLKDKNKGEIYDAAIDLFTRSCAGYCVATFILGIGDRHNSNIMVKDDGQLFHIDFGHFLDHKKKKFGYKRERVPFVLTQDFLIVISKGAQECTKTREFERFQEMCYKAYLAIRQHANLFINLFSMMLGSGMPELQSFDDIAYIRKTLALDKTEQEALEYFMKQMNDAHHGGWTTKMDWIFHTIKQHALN

[4] = target: Phosphatidylinositol 4,5-bisphosphate 3-kinase catalytic subunit beta isoform (Homo sapiens, UniProt P42338); experiment: Inhibition of PI3Kbeta (unknown origin)
Sequence of Phosphatidylinositol 4,5-bisphosphate 3-kinase catalytic subunit beta isoform (P42338 whole entry, canonical isoform): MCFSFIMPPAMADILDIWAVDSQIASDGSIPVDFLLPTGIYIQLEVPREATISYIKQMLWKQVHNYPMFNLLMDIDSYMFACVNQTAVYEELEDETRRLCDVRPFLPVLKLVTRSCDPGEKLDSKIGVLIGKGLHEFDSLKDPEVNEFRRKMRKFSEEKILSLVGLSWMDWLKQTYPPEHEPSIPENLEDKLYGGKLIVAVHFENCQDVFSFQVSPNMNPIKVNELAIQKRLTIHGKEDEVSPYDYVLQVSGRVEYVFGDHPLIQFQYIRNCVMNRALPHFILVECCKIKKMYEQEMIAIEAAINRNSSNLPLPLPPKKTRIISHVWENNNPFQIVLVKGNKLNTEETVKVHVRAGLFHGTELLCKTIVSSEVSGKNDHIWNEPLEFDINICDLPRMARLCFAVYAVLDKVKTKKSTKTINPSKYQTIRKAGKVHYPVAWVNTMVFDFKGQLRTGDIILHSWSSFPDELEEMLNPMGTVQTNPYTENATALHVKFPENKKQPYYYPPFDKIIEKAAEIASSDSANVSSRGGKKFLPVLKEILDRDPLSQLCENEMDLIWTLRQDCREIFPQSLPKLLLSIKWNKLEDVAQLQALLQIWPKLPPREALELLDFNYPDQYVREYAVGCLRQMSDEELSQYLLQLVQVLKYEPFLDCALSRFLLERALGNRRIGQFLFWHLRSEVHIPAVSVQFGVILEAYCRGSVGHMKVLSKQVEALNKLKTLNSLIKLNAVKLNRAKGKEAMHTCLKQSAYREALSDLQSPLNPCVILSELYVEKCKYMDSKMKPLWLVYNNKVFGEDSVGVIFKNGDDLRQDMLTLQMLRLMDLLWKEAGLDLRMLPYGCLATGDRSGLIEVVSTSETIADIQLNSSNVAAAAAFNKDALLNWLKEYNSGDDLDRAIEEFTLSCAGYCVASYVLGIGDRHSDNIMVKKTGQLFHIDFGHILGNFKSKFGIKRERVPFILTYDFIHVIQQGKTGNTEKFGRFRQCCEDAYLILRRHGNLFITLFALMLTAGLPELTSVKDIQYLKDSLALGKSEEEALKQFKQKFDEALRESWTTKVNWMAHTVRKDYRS

[5] = target: Phosphatidylinositol 4,5-bisphosphate 3-kinase catalytic subunit gamma isoform (Homo sapiens, UniProt P48736); experiment: Inhibition of PI3Kgamma (unknown origin)
Sequence of Phosphatidylinositol 4,5-bisphosphate 3-kinase catalytic subunit gamma isoform (P48736 whole entry, canonical isoform): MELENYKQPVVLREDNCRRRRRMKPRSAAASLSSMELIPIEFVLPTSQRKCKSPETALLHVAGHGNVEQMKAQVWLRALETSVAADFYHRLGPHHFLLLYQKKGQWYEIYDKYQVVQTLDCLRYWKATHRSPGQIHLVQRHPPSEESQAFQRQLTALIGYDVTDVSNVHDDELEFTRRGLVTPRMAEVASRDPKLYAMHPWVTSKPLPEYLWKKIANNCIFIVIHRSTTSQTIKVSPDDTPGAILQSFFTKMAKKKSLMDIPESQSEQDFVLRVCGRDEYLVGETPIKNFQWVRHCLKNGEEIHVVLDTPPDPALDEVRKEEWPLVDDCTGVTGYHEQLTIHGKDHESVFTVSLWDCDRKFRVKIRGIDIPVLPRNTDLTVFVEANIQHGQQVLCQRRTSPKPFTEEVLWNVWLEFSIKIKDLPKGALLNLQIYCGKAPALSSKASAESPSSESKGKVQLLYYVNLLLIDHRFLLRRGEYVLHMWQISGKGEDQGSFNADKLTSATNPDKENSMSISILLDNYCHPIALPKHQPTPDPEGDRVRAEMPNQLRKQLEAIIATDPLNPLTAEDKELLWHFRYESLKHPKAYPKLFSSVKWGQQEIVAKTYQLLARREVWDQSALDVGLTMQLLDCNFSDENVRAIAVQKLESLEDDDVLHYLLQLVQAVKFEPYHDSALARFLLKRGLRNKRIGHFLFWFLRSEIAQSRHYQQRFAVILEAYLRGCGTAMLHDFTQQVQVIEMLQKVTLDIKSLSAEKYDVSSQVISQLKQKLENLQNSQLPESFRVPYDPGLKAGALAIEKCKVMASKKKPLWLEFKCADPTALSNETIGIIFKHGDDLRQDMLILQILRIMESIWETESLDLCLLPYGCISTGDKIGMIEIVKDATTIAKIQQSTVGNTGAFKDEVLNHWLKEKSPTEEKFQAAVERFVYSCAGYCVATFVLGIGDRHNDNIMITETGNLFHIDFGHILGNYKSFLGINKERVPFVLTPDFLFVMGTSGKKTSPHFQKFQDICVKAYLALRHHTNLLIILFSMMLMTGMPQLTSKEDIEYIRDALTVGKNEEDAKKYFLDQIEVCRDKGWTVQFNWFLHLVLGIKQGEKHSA

[6] = target: T2, Phosphatidylinositol 4,5-bisphosphate 3-kinase catalytic subunit delta isoform (Homo sapiens, UniProt O00329); experiment: Inhibition of PI3Kdelta (unknown origin)
T2 sequence (O00329 whole entry): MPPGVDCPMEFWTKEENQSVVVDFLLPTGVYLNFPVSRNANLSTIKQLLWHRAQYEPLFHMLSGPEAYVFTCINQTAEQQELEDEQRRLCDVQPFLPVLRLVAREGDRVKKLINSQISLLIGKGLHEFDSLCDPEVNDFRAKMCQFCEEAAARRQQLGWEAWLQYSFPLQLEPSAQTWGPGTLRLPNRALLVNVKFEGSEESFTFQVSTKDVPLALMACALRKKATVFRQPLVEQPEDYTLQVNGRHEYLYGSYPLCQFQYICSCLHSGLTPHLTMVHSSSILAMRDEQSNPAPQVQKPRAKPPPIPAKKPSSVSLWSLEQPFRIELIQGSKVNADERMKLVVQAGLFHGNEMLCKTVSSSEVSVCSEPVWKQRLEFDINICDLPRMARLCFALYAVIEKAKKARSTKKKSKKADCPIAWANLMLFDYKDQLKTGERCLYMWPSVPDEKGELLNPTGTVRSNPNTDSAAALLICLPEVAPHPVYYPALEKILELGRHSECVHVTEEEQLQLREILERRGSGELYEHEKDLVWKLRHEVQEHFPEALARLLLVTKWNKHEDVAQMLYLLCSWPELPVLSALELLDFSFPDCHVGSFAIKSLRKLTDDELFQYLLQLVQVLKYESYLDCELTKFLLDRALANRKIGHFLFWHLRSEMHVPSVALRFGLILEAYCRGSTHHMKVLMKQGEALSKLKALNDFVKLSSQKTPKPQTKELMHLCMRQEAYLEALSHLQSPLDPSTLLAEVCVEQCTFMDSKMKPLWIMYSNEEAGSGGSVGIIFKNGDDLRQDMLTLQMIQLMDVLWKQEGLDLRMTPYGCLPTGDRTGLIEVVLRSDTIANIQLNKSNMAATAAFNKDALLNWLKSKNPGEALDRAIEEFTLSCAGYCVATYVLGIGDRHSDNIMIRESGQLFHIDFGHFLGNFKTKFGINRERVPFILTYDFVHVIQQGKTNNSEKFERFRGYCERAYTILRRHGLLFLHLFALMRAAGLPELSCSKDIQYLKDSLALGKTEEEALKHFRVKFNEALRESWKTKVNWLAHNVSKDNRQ

[7] = tested on: B16; experiment: Antiproliferative activity against mouse B16 cells assessed as reduction in cell viability incubated for 48 hrs irradiated with 365 nm uv light for 4 min by CCK-8 assay; assay type: functional, cell-based; settings: B16, light or radiation study
[8] = target: T1, Phosphatidylinositol 3-kinase (Mus musculus); experiment: Inhibition of PI3K in mouse B16 cells assessed as reduction in phosphorylation of AKT at […] residue incubated for 24 hrs by Western blot analysis; assay type: cell-based; settings: dose 10-15 µM
[9] = target: T1, Phosphatidylinositol 3-kinase (Mus musculus); experiment: Inhibition of PI3K in mouse B16 cells assessed as reduction in phosphorylation of AKT at T308 residue incubated for 24 hrs by Western blot analysis; assay type: cell-based; settings: dose 10-15 µM
[10] = target: T1, Phosphatidylinositol 3-kinase (Mus musculus); experiment: Inhibition of PI3K in mouse B16 cells assessed as reduction in MCL-1 protein expression incubated for 24 hrs by Western blot analysis; assay type: cell-based; settings: dose 10-15 µM
[11] = target: T1, Phosphatidylinositol 3-kinase (Mus musculus); experiment: Inhibition of PI3K in mouse B16 cells assessed as reduction in MCL-1 protein expression at 10 to 15 uM incubated for 24 hrs irradiated with 365 nm uv light for 4 min by Western blot analysis; assay type: cell-based; settings: dose 10-15 µM
[12] = tested on: B16; experiment: Induction of apoptosis in mouse B16 cells assessed as viable at 10 uM incubated for 48 hrs by annexin-V/propidium iodide staining based flow cytometry analysis (reference value: 97.4 %); assay type: functional
[13] = tested on: B16; experiment: Induction of apoptosis in mouse B16 cells assessed as early apoptotic cells at 10 uM incubated for 48 hrs by annexin-V/propidium iodide staining based flow cytometry analysis (reference value: 1.39 %); assay type: functional
[14] = tested on: B16; experiment: Induction of apoptosis is in mouse B16 cells assessed as late apoptotic cells at 10 uM incubated for 48 hrs by annexin-V/propidium iodide staining based flow cytometry analysis (reference value: 1.15 %); assay type: functional
[15] = tested on: B16; experiment: Induction of apoptosis is in mouse B16 cells assessed as necrotic cells at 10 uM incubated for 48 hrs by annexin-V/propidium iodide staining based flow cytometry analysis (reference value: 0.01 %); assay type: functional
[16] = tested on: B16; experiment: Induction of apoptosis in mouse B16 cells assessed as viable at 15 uM incubated for 48 hrs by annexin-V/propidium iodide staining based flow cytometry analysis (reference value: 97.4 %); assay type: functional
[17] = tested on: B16; experiment: Induction of apoptosis in mouse B16 cells assessed as early apoptotic cells at 15 uM incubated for 48 hrs by annexin-V/propidium iodide staining based flow cytometry analysis (reference value: 1.39 %); assay type: functional
[18] = tested on: B16; experiment: Induction of apoptosis is in mouse B16 cells assessed as late apoptotic cells at 15 uM incubated for 48 hrs by annexin-V/propidium iodide staining based flow cytometry analysis (reference value: 1.15 %); assay type: functional
[19] = tested on: B16; experiment: Induction of apoptosis is in mouse B16 cells assessed as necrotic cells at 15 uM incubated for 48 hrs by annexin-V/propidium iodide staining based flow cytometry analysis (reference value: 0.01 %); assay type: functional
[20] = tested on: B16; experiment: Induction of apoptosis in mouse B16 cells assessed as viable cells at 10 uM incubated for 48 hrs irradiated with 365 nm for 4 mins by annexin-V/propidium iodide staining based flow cytometry analysis (reference value: 96.7 %); assay type: functional; settings: B16, light or radiation study, read-out: Activity
[21] = tested on: B16; experiment: Induction of apoptosis in mouse B16 cells assessed as early apoptotic cells at 10 uM incubated for 48 hrs irradiated with 365 nm for 4 mins by annexin-V/propidium iodide staining based flow cytometry analysis (reference value: 2.38 %); assay type: functional
[22] = tested on: B16; experiment: Induction of apoptosis in mouse B16 cells assessed as late apoptotic cells at 10 uM incubated for 48 hrs irradiated with 365 nm for 4 mins by annexin-V/propidium iodide staining based flow cytometry analysis (reference value: 0.84 %); assay type: functional
[23] = tested on: B16; experiment: Induction of apoptosis in mouse B16 cells assessed as necrotic cells at 10 uM incubated for 48 hrs irradiated with 365 nm for 4 mins by annexin-V/propidium iodide staining based flow cytometry analysis (reference value: 0.07 %); assay type: functional
[24] = tested on: B16; experiment: Induction of apoptosis in mouse B16 cells assessed as viable cells at 15 uM incubated for 48 hrs irradiated with 365 nm for 4 mins by annexin-V/propidium iodide staining based flow cytometry analysis (reference value: 96.7 %); assay type: functional; settings: B16, light or radiation study, read-out: Activity
[25] = tested on: B16; experiment: Induction of apoptosis in mouse B16 cells assessed as early apoptotic cells at 15 uM incubated for 48 hrs irradiated with 365 nm for 4 mins by annexin-V/propidium iodide staining based flow cytometry analysis (reference value: 2.38 %); assay type: functional
[26] = tested on: B16; experiment: Induction of apoptosis in mouse B16 cells assessed as late apoptotic cells at 15 uM incubated for 48 hrs irradiated with 365 nm for 4 mins by annexin-V/propidium iodide staining based flow cytometry analysis (reference value: 0.84 %); assay type: functional
[27] = tested on: B16; experiment: Induction of apoptosis in mouse B16 cells assessed as necrotic cells at 15 uM incubated for 48 hrs irradiated with 365 nm for 4 mins by annexin-V/propidium iodide staining based flow cytometry analysis (reference value: 0.07 %); assay type: functional
[28] = tested on: B16; experiment: Induction of cell cycle arrest in mouse B16 cells assessed as cells accumulation at G2/M phase at 10 to 15 uM incubated for 24 hrs by flow cytometry analysis; assay type: functional, cell-based; settings: dose 10-15 µM
[29] = tested on: B16; experiment: Induction of cell cycle arrest in mouse B16 cells assessed as cells accumulation at G2/M phase at 10 to 15 uM incubated for 24 hrs irradiated with 365 nm for 4 mins by flow cytometry analysis; assay type: functional, cell-based; settings: dose 10-15 µM
[30] = Retention time of the compound under 365 nm UV light irradiation by HPLC analysis; assay type: physicochemical
[31] = tested on: B16; experiment: Induction of apoptosis in mouse B16 cells assessed as increase in apoptotic cells at 10 uM incubated for 48 hrs by annexin-V/propidium iodide staining based flow cytometry analysis; assay type: functional
[32] = Photorelease activity in PBS assessed as N-(2-chloro-5-(1H-pyrazolo[3,4-b]pyridin-5-yl)pyridin-3-yl) benzene sulfonamide release irradiated with 254 nm incubated for 12 mins by HPLC analysis
[33] = target: T1, Phosphatidylinositol 3-kinase (Mus musculus); experiment: Inhibition of PI3K in mouse B16 cells assessed as reduction in phosphorylation of AKT at […] residue at 10 to 15 uM incubated for 24 hrs by Western blot analysis; assay type: cell-based; settings: dose 10-15 µM
[34] = target: T1, Phosphatidylinositol 3-kinase (Mus musculus); experiment: Inhibition of PI3K in mouse B16 cells assessed as reduction in phosphorylation of AKT at T308 residue at 10 to 15 uM incubated for 24 hrs by Western blot analysis; assay type: cell-based; settings: dose 10-15 µM
[35] = target: T1, Phosphatidylinositol 3-kinase (Mus musculus); experiment: Inhibition of PI3K in mouse B16 cells assessed as reduction in MCL-1 protein expression at 10 to 15 uM incubated for 24 hrs by Western blot analysis; assay type: cell-based; settings: dose 10-15 µM

For `COc1cc(COC(=O)n2ncc3cc(-c4cnc(Cl)c(NS(=O)(=O)c5ccccc5)c4)cnc32)c([N+](=O)[O-])cc1OC`, the inhibition [1] was “Active”, the inhibition [2] was “Active” and the IC50 [3] was 0.043 µM. The IC50 [4] was 0.083 µM, the IC50 [5] was 0.084 µM and the IC50 [6] was 0.014 µM. The IC50 [7] was 8.8 µM, the inhibition [8] was “Dose-Dependent Effect” and the inhibition [9] was “Dose-Dependent Effect”. For the same compound, the inhibition [10] was “Dose-Dependent Effect”, the inhibition [11] was “Active” and the Activity [12] was 95.6%. It also gave an Activity [13] of 3.16%, an Activity [14] of 1.25% and an Activity [15] of 0%. The Activity [16] was 88.1%, the Activity [17] was 7.13% and the Activity [18] was 3.42%. It also gave an Activity [19] of 1.3%, a viability at 10 µM [20] of 88.5% and an Activity [21] of 8.04%. For the same compound, the Activity [22] was 3.49%, the Activity [23] was 0% and the viability at 15 µM [24] was 69.6%. It also gave an Activity [25] of 14.4%, an Activity [26] of 14.7% and an Activity [27] of 1.27%. The Activity [28] was “Active”, the Activity [29] was “Active” and the Retention_time [30] was 10.4 min. For the same compound, the Activity [31] was less than 10% and the Drug metabolism [32] was greater than 98%.
With `O=S(=O)(Nc1cc(-c2cnc3[nH]ncc3c2)cnc1Cl)c1ccccc1` the Retention_time [30] was 7.9 min, the inhibition [33] was “Active” and the inhibition [34] was “Active”. The inhibition [35] was “Active”.
